Measurements published in PubChem BioAssay AID248 (DTP/NCI, 2004).
Where “and” joins values, the source holds several entries; their conditions need not be identical. Equal values may be shown once. Inconclusive results and toxic doses are left out. No stated cut-off is given here; in the data, active means T/C of 150% or more; inactive means T/C below 125%.

Test system: L1210 leukemia ip in BDF1 mice, survival T/C
Experiment: NCI In Vivo Anticancer Drug Screen. Data for tumor model L1210 Leukemia (intraperitoneal) in B6D2F1 (BDF1) mice
Conditions: endpoint: mean survival time, higher = longer survival
Outline: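 In this screen, tumor-bearing mice given compound are compared to those given vehicle, and their survival values are reported as a treated-to-control quotient.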

[1] = dose: 100.0 mg/kg/injection, schedule: Q04DX003 (ip), vehicle: Klucel (hydroxypropylcellulose) (HPC)
[2] = dose: 200.0 mg/kg/injection, schedule: Q04DX003 (ip), vehicle: Klucel (hydroxypropylcellulose) (HPC)
[3] = dose: 400.0 mg/kg/injection, schedule: Q04DX003 (ip), vehicle: Klucel (hydroxypropylcellulose) (HPC)
[4] = dose: 50.0 mg/kg/injection, schedule: Q01DX009 (ip), vehicle: Klucel (hydroxypropylcellulose) (HPC)
[5] = dose: 50.0 mg/kg/injection, schedule: Q04DX003 (ip), vehicle: Klucel (hydroxypropylcellulose) (HPC)
[6] = dose: 100.0 mg/kg/injection, schedule: Q04DX003 (ip), vehicle: saline with Tween-80
[7] = dose: 200.0 mg/kg/injection, schedule: Q04DX003 (ip), vehicle: saline with Tween-80

Measured: T/C

Cc1nc(N)[nH]c(=O)c1CCCN=Cc1ccc([N+](=O)[O-])cc1
inactive: dose: 18.75 mg/kg/injection, schedule: Q01DX001 (ip), vehicle: Klucel (hydroxypropylcellulose) (HPC) 95 % of control | dose: 37.5 mg/kg/injection, schedule: Q01DX001 (ip), vehicle: Klucel (hydroxypropylcellulose) (HPC) 101 % of control | dose: 75.0 mg/kg/injection, schedule: Q01DX001 (ip), vehicle: Klucel (hydroxypropylcellulose) (HPC) 101 % of control

COc1cc2c(c(O)c1OCC=C(C)C)c(=O)c1ccccc1n2C
inactive: dose: 100.0 mg/kg/injection, schedule: Q01DX001 (ip), vehicle: carboxymethylcellulose (CMC) 93 % of control | dose: 200.0 mg/kg/injection, schedule: Q01DX001 (ip), vehicle: carboxymethylcellulose (CMC) 95 % of control | dose: 400.0 mg/kg/injection, schedule: Q01DX001 (ip), vehicle: carboxymethylcellulose (CMC) 88 % of control

Cc1ccc(NC(=O)Nc2ccc(Nc3ccccc3)cc2)c([N+](=O)[O-])c1
inactive: [1] 94 % of control | [2] 90 % of control | [3] 90 % of control

c1ccc(-c2nc3ccccc3c3ccccc23)cc1
inactive: [1] 101 % of control | [2] 103 % of control | [3] 106 % of control

COc1ccc2c(c1OC)C13CCCCC1C(C2)[N+](C)(C)CC3 (stereo not given)
inactive: dose: 12.5 mg/kg/injection, schedule: Q04DX003 (ip), vehicle: Klucel (hydroxypropylcellulose) (HPC) 100 % of control and 91 % of control | dose: 25.0 mg/kg/injection, schedule: Q01DX009 (ip), vehicle: Klucel (hydroxypropylcellulose) (HPC) 100 % of control | dose: 25.0 mg/kg/injection, schedule: Q04DX003 (ip), vehicle: Klucel (hydroxypropylcellulose) (HPC) 94 % of control and 106 % of control | [4] 89 % of control | [5] 96 % of control and 88 % of control | [1] 98 % of control

CC(=O)OCC(=O)[C@@]1(O)CC[C@H]2[C@@H]3C[C@@H](C)C4=CC(=O)C=C[C@]4(C)[C@H]3[C@@H](O)C[C@@]21C
inactive: dose: 75.0 mg/kg/injection, schedule: Q01DX009 (sc), vehicle: steriod suspending solution 92 % of control | dose: 100.0 mg/kg/injection, schedule: Q04DX003 (ip), vehicle: steriod suspending solution 97 % of control | dose: 100.0 mg/kg/injection, schedule: Q04DX003 (sc), vehicle: steriod suspending solution 100 % of control | dose: 150.0 mg/kg/injection, schedule: Q01DX009 (sc), vehicle: steriod suspending solution 92 % of control | dose: 200.0 mg/kg/injection, schedule: Q04DX003 (ip), vehicle: steriod suspending solution 91 % of control | dose: 200.0 mg/kg/injection, schedule: Q04DX003 (sc), vehicle: steriod suspending solution 102 % of control | dose: 300.0 mg/kg/injection, schedule: Q01DX009 (sc), vehicle: steriod suspending solution 92 % of control | dose: 400.0 mg/kg/injection, schedule: Q04DX003 (ip), vehicle: steriod suspending solution 94 % of control | dose: 400.0 mg/kg/injection, schedule: Q04DX003 (sc), vehicle: steriod suspending solution 103 % of control

COc1ccc(C(=S)N2CCN(c3ccccc3Cl)CC2)cc1
inactive: dose: 100.0 mg/kg/injection, schedule: Q01DX001 (ip), vehicle: saline 101 % of control | dose: 200.0 mg/kg/injection, schedule: Q01DX001 (ip), vehicle: saline 91 % of control | dose: 400.0 mg/kg/injection, schedule: Q01DX001 (ip), vehicle: saline 90 % of control

COc1ccc(CCNC(=O)C2(C(C)C)OC3(O)C4CCCN4C(=O)C(C(C)C)N3C2=O)cc1OC (stereo not given)
inactive: dose: 12.5 mg/kg/injection, schedule: Q04DX003 (ip), vehicle: alcohol 98 % of control | dose: 25.0 mg/kg/injection, schedule: Q04DX003 (ip), vehicle: alcohol 97 % of control | dose: 25.0 mg/kg/injection, schedule: Q04DX003 (ip), vehicle: saline with Tween-80 98 % of control | dose: 50.0 mg/kg/injection, schedule: Q04DX003 (ip), vehicle: alcohol 104 % of control | dose: 50.0 mg/kg/injection, schedule: Q04DX003 (ip), vehicle: saline with Tween-80 114 % of control | dose: 100.0 mg/kg/injection, schedule: Q04DX003 (ip), vehicle: alcohol 101 % of control | [6] 98 % of control | [7] 111 % of control

Cc1ccc(C(C)C)cc1NC(=O)c1cccc([N+](=O)[O-])c1
inactive: dose: 100.0 mg/kg/injection, schedule: Q01DX009 (ip), vehicle: other 98 % of control | dose: 200.0 mg/kg/injection, schedule: Q01DX009 (ip), vehicle: other 88 % of control | dose: 400.0 mg/kg/injection, schedule: Q01DX009 (ip), vehicle: other 98 % of control

CC(=O)[O][Hg][c]1ccc(Cl)cc1
inactive: dose: 5.0 mg/kg/injection, schedule: Q01DX001 (ip), vehicle: saline 89 % of control | dose: 10.0 mg/kg/injection, schedule: Q01DX001 (ip), vehicle: saline 94 % of control | dose: 20.0 mg/kg/injection, schedule: Q01DX001 (ip), vehicle: saline 96 % of control | dose: 40.0 mg/kg/injection, schedule: Q01DX001 (ip), vehicle: saline 89 % of control | dose: 80.0 mg/kg/injection, schedule: Q01DX001 (ip), vehicle: saline 91 % of control

Cc1ccc(C(=O)CCC(=O)O)c(C)c1
inactive: [6] 100 % of control | [7] 98 % of control | dose: 400.0 mg/kg/injection, schedule: Q04DX003 (ip), vehicle: saline with Tween-80 98 % of control

Nc1ncnc2c(-c3ccccc3)c[nH]c12
inactive: dose: 100.0 mg/kg/injection, schedule: Q01DX001 (ip), vehicle: Klucel (hydroxypropylcellulose) (HPC) 102 % of control | [1] 100 % of control | dose: 200.0 mg/kg/injection, schedule: Q01DX001 (ip), vehicle: Klucel (hydroxypropylcellulose) (HPC) 97 % of control | [2] 100 % of control | dose: 400.0 mg/kg/injection, schedule: Q01DX001 (ip), vehicle: Klucel (hydroxypropylcellulose) (HPC) 91 % of control | [3] 104 % of control

Nc1ncnc2nc(N=Nc3ccc(S(=O)(=O)N(CCCl)CCCl)cc3)[nH]c12
inactive: [5] 93 % of control | [1] 88 % of control and 91 % of control | [2] 96 % of control

O=C1CCC2=C3C4CCCCC4C(=O)C4CCCC(OC2C1)C34 (stereo not given)
inactive: dose: 75.0 mg/kg/injection, schedule: Q01DX001 (ip), vehicle: other 105 % of control | dose: 150.0 mg/kg/injection, schedule: Q01DX001 (ip), vehicle: other 94 % of control | dose: 300.0 mg/kg/injection, schedule: Q01DX001 (ip), vehicle: other 89 % of control

IC1CCCCC1[n+]1ccccc1 (stereo not given)
inactive: dose: 100.0 mg/kg/injection, schedule: Q04DX003 (sc), vehicle: olive oil, sesame oil, peanut oil 105 % of control | dose: 200.0 mg/kg/injection, schedule: Q04DX003 (sc), vehicle: olive oil, sesame oil, peanut oil 103 % of control | dose: 400.0 mg/kg/injection, schedule: Q04DX003 (sc), vehicle: olive oil, sesame oil, peanut oil 101 % of control

COC1=C(F)C(=O)C(OC)=C(F)C1=O
inactive: dose: 1.2 mg/kg/injection, schedule: Q01DX001 (ip), vehicle: alcohol 101 % of control | dose: 2.5 mg/kg/injection, schedule: Q01DX001 (ip), vehicle: alcohol 97 % of control | dose: 5.0 mg/kg/injection, schedule: Q01DX001 (ip), vehicle: alcohol 103 % of control

Nc1cc(=O)[nH]c(S(=O)O)n1
inactive: [4] 100 % of control | dose: 100.0 mg/kg/injection, schedule: Q01DX009 (ip), vehicle: Klucel (hydroxypropylcellulose) (HPC) 98 % of control | dose: 200.0 mg/kg/injection, schedule: Q01DX009 (ip), vehicle: Klucel (hydroxypropylcellulose) (HPC) 98 % of control

C#CC(C)OCC1CO1 (stereo not given)
inactive: dose: 50.0 mg/kg/injection, schedule: Q01DX009 (ip), vehicle: saline 86 % of control | dose: 100.0 mg/kg/injection, schedule: Q01DX009 (ip), vehicle: saline 86 % of control | dose: 100.0 mg/kg/injection, schedule: Q04DX003 (ip), vehicle: saline sonified 117 % of control | dose: 200.0 mg/kg/injection, schedule: Q01DX009 (ip), vehicle: saline 93 % of control | dose: 200.0 mg/kg/injection, schedule: Q04DX003 (ip), vehicle: saline sonified 93 % of control

CCOc1nc(SCC)ncc1C
inactive: dose: 100.0 mg/kg/injection, schedule: Q01DX009 (ip), vehicle: water 107 % of control | dose: 100.0 mg/kg/injection, schedule: Q04DX003 (ip), vehicle: water 101 % of control | dose: 200.0 mg/kg/injection, schedule: Q01DX009 (ip), vehicle: water 106 % of control | dose: 200.0 mg/kg/injection, schedule: Q04DX003 (ip), vehicle: water 95 % of control | dose: 400.0 mg/kg/injection, schedule: Q04DX003 (ip), vehicle: water 103 % of control
